Test results reported in patent publication US8022206B2 (OSI Pharmaceuticals, LLC, priority 2008, dated 2011).

Key:
MET (human) = MET (human) (Homo sapiens, UniProt P08581); assay: MET (human) AlphaScreen kinase assay, Km of ATP; assay type: biochemical; settings: AlphaScreen, Km of ATP; read-out: Met biochemical IC50
Summary of the method: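 Human MET at lot-optimised concentration in 50 mM Tris pH 7.4 buffer with 1 mM DTT, compound at 1% DMSO final; enzyme starts the reaction, 60 min at RT.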

RON (human) = RON (human) (Homo sapiens, UniProt Q04912); assay: RON (human) AlphaScreen kinase assay, Km of ATP; assay type: biochemical; settings: AlphaScreen, Km of ATP; read-out: RON biochemical IC50
Sequence of RON (human) (Q04912 25-1400): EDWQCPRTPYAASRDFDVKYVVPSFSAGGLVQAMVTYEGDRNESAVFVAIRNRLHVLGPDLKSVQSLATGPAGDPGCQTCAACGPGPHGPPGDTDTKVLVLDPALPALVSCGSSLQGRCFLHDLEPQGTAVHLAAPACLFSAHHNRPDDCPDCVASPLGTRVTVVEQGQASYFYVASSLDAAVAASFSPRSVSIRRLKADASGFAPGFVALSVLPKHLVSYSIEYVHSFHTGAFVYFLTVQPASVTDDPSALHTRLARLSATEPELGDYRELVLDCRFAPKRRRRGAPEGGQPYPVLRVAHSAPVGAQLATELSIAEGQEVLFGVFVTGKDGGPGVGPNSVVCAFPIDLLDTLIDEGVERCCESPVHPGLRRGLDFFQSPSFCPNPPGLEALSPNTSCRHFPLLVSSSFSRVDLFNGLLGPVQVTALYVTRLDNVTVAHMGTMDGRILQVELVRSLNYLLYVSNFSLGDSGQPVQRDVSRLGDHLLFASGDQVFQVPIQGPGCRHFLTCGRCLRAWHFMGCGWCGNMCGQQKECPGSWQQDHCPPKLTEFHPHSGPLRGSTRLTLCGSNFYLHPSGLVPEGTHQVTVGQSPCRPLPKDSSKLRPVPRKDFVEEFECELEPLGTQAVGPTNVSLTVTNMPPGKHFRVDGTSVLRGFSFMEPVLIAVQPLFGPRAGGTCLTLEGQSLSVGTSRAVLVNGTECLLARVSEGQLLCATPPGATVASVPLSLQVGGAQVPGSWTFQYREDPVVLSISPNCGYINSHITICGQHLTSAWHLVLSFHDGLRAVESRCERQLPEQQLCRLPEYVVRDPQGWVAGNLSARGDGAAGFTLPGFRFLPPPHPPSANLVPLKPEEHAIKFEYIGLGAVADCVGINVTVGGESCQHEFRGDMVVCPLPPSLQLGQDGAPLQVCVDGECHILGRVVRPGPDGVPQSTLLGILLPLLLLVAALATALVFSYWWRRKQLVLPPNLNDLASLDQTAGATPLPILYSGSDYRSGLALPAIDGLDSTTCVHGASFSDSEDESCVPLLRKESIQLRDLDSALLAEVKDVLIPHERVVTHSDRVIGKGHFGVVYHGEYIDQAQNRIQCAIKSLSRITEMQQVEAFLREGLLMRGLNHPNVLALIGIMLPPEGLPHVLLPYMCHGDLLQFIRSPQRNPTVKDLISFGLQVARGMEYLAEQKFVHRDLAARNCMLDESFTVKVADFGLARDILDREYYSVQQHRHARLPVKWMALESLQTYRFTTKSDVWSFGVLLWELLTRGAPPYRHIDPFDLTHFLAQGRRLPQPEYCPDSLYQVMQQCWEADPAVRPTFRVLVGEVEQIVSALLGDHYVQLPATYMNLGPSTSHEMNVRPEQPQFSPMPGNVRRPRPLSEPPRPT
Summary of the method: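 Reaction was started with enzyme and run 30 min at RT. PT66 donor/acceptor beads in an EDTA-containing Tris pH 7.5 buffer were then added, and the signal was read after 1 h.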

Sequence of MET (human) (P08581 25-1390): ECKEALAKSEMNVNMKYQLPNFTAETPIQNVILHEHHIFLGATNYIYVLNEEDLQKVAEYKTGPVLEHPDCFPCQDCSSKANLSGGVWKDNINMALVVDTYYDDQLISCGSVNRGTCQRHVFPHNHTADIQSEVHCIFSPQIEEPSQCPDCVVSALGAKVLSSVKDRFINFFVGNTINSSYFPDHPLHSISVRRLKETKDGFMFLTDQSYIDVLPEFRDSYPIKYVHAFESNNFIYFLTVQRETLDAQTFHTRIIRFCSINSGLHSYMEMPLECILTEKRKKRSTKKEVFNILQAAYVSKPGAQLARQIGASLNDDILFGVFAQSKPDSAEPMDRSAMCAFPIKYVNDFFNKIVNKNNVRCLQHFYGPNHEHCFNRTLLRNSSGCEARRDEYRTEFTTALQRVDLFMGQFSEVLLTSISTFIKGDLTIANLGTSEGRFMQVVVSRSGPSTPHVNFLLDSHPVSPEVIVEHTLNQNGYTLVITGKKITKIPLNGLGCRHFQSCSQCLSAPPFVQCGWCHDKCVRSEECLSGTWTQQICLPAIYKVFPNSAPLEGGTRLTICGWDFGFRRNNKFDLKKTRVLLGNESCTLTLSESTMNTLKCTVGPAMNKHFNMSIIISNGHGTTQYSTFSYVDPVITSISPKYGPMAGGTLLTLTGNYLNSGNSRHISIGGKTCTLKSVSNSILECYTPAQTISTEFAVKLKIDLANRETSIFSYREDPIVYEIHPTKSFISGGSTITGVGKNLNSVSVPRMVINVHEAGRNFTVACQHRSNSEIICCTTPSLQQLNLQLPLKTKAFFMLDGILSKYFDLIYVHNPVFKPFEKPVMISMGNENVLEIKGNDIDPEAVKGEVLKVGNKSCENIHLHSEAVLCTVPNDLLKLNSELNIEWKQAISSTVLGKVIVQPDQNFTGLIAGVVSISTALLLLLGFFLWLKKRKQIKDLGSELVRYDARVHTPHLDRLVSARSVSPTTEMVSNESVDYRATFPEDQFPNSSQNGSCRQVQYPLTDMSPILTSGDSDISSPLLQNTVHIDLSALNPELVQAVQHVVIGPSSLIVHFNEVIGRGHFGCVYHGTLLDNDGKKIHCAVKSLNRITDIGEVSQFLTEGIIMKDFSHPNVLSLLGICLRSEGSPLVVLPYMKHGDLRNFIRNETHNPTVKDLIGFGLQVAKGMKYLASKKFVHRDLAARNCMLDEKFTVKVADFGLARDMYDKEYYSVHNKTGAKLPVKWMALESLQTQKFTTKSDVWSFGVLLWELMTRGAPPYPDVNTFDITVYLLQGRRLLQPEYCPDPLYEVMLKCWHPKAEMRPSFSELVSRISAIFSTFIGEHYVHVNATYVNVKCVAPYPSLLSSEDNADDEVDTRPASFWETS

## C[C@@H](Oc1c(N)ncc2c(C3=CCN(C(=O)[C@@H]4CCCN4C)CC3)coc12)c1c(Cl)ccc(F)c1Cl [Example 18, (4-{6-Amino-7-[(R)-1-(2,6-dichloro-3-fluorophenyl)-ethoxy]-furo[3,2-c]pyridin-3-yl}-3,6-dihydro-2H-pyridin-1-yl)-((S)-1-methylpyrrolidin-2-yl)-methanone]
MET (human)
  IC50: < 500 nM
RON (human)
  IC50: < 500 nM

## C[C@@H](Oc1c(N)ncc2ccoc12)c1nnc2ccc(-c3cnn(C)c3)nn12 [Example 470, 7-{(1R)-1-[6-(1-methyl-1H-pyrazol-4-yl) [1,2,4]triazolo[4,3-b]pyridazin-3-yl]ethoxy}furo[3,2-c]pyridin-6-amine]
MET (human)
  IC50: 500 to 5000 nM
RON (human)
  IC50: > 20000 nM

## C[C@@H](Oc1c(N)ncc2c(-c3ccnc(N4CCNCC4)c3)coc12)c1c(Cl)ccc(F)c1Cl [Example 132, 7-[(R)-(2,6-Dichloro-3-fluorophenyl)ethoxy]-3-(2-piperazin-1-yl-pyridin-4-yl)furo[3,2-c]pyridin-6-ylamine]
MET (human)
  IC50: < 500 nM
RON (human)
  IC50: < 500 nM

## C[C@@H](Oc1c(N)ncc2c(-c3cccc(C(=O)NCCN(C)C)c3)coc12)c1c(Cl)ccc(F)c1Cl [Example 74, 3-{6-Amino-7-[(R)-1-(2,6-dichloro-3-fluorophenyl)ethoxy]-furo[3,2-c]pyridin-3-yl}-N-(2-dimethylaminoethyl)benzamide]
MET (human)
  IC50: < 500 nM
RON (human)
  IC50: < 500 nM

## CC(Oc1c(N)ncc2c(-c3cnn(C4CCNCC4)c3)coc12)c1cccc(C(F)(F)F)c1 (centres unmarked) [Example 347, 3-(1-Piperidin-4-yl-1H-pyrazol-4-yl)-7-[1-(3-trifluoromethyl-phenyl)ethoxy]furo[3,2-c]pyridin-6-ylamine]
MET (human)
  IC50: < 500 nM
RON (human)
  IC50: 500 to 5000 nM

## C[C@@H](Oc1c(N)ncc2c(C3=CCN(C(=O)c4cnn[nH]4)CC3)coc12)c1c(Cl)ccc(F)c1Cl [Example 230, (4-{6-Amino-7-[(R)-1-(2,6-dichloro-3-fluorophenyl)ethoxy]-furo[3,2-c]pyridin-3-yl}-3,6-dihydro-2H-pyridin-1-yl)-(3H-[1,2,3]triazol-4-yl)-methanone]
MET (human)
  IC50: 500 to 5000 nM
RON (human)
  IC50: 500 to 5000 nM

## C[C@@H](Oc1c(N)ncc2c(C3=CCN(C(=O)[C@@H]4CCCN4)CC3)coc12)c1c(Cl)ccc(F)c1Cl [Example 22, (4-{6-Amino-7-[(R)-1-(2,6-dichloro-3-fluorophenyl)ethoxy]furo[3,2-c]pyridin-3-yl}-3,6-dihydro-2H-pyridin-1-yl)-(S)-pyrrolidin-2-ylmethanone]
MET (human)
  IC50: < 500 nM
RON (human)
  IC50: < 500 nM

## CC(Oc1c(N)ncc2c(C3=CCN(C(N)=O)CC3)coc12)c1c(Br)ccc(F)c1Cl (centres unmarked) [Example 457, 4-{6-Amino-7-[1-(6-bromo-2-chloro-3-fluorophenyl)ethoxy]furo[3,2-c]pyridin-3-yl}-3,6-dihydro-2H-pyridine-1-carboxamide]
MET (human)
  IC50: < 500 nM
RON (human)
  IC50: 500 to 5000 nM

## C[C@@H](Oc1c(N)ncc2c(-c3ccc(C(N)=O)s3)coc12)c1c(Cl)ccc(F)c1Cl [Example 209, 5-{6-Amino-7-[(R)-1-(2,6-dichloro-3-fluorophenyl)ethoxy]-furo[3,2-c]pyridin-3-yl}-thiophene-2-carboxamide]
MET (human)
  IC50: 500 to 5000 nM
RON (human)
  IC50: 500 to 5000 nM

## CCCOC(=O)N1CC=C(c2coc3c(O[C@H](C)c4c(Cl)ccc(F)c4Cl)c(N)ncc23)CC1 [Example 52, 4-{6-Amino-7-[(R)-1-(2,6-dichloro-3-fluorophenyl)-ethoxy]-furo[3,2-c]pyridin-3-yl}-3,6-dihydro-2H-pyridine-1-carboxylic acid propyl ester]
MET (human)
  IC50: 500 to 5000 nM
RON (human)
  IC50: 500 to 5000 nM

## CC(Oc1c(N)ncc2c(-c3cnn(C4CCNCC4)c3)coc12)c1cc(F)cc(-c2ccn[nH]2)c1 (centres unmarked) [Example 450, 7-{1-[3-Fluoro-5-(2H-pyrazol-3-yl)phenyl]ethoxy}-3-(1-piperidin-4-yl-1H-pyrazol-4-yl)furo[3,2-c]pyridin-6-ylamine]
MET (human)
  IC50: < 500 nM
RON (human)
  IC50: 500 to 5000 nM

## C[C@@H](Oc1c(N)ncc2c(C3=CCN(C(=O)N4CCN(CC(F)(F)F)CC4)CC3)coc12)c1c(Cl)ccc(F)c1Cl [Example 28, (4-{6-Amino-7-[(R)-1-(2,6-dichloro-3-fluorophenyl)-ethoxy]-furo[3,2-c]pyridin-3-yl}-3,6-dihydro-2H-pyridin-1-yl)-[4-(2,2,2-trifluoroethyl)-piperazin-1-yl]-methanone]
MET (human)
  IC50: 500 to 5000 nM
RON (human)
  IC50: 500 to 5000 nM

## C[C@@H](Oc1c(N)ncc2c(C3=CCN(C)CC3)coc12)c1c(Cl)ccc(F)c1Cl [Example 37, 7-[(R)-1-(2,6-Dichloro-3-fluorophenyl)-ethoxy]-3-(1-methyl-1,2,3,6-tetrahydropyridin-4-yl)-furo[3,2-c]pyridin-6-ylamine]
MET (human)
  IC50: < 500 nM
RON (human)
  IC50: < 500 nM

## C[C@H](Oc1c(N)ncc2ccoc12)c1nnc2ccc(-c3cnn(C)c3)nn12 [Example 474, 7-{(1S)-1-[6-(1-methyl-1H-pyrazol-4-yl) [1,2,4]triazolo[4,3-b]pyridazin-3-yl]ethoxy}furo[3,2-c]pyridin-6-amine]
MET (human)
  IC50: 500 to 5000 nM
RON (human)
  IC50: > 20000 nM

## C[C@H](Oc1c(N)ncc2c(C3=CCN(C(N)=O)CC3)coc12)c1c(Cl)ccc(F)c1Cl [Example 456, 4-{6-Amino-7-[(S)-1-(2,6-dichloro-3-fluorophenyl)ethoxy]furo[3,2-c]pyridin-3-yl}-3,6-dihydro-2H-pyridine-1-carboxamide]
MET (human)
  IC50: < 500 nM
RON (human)
  IC50: 500 to 5000 nM

## CC(Oc1c(N)ncc2c(-c3cnn(C4CCNCC4)c3)coc12)c1ccc(Cl)cc1F (centres unmarked) [Example 378, 7-[1-(4-Chloro-2-fluorophenyl)ethoxy]-3-(1-piperidin-4-yl-1H-pyrazol-4-yl)furo[3,2-c]pyridin-6-ylamine]
MET (human)
  IC50: < 500 nM
RON (human)
  IC50: 500 to 5000 nM

## C[C@@H](Oc1c(N)ncc2c(C3=CCN(C(=O)[C@@H](N)CO)CC3)coc12)c1c(Cl)ccc(F)c1Cl [Example 254, (2S)-2-Amino-1-[4-{6-amino-7-[(1R)-1-(2,6-dichloro-3-fluoro-phenyl)ethoxy]furo[3,2-c]pyridin-3-yl}-3,6-dihydropyridin-1(2H)-yl]-3-hydroxypropan-1-one]
MET (human)
  IC50: < 500 nM
RON (human)
  IC50: < 500 nM

## C[C@@H](Oc1c(N)ncc2c(-c3ccc(C(=O)N4CCC(O)CC4)cc3)coc12)c1c(Cl)ccc(F)c1Cl [Example 296, (4-{6-Amino-7-[(R)-1-(2,6-dichloro-3-fluorophenyl)ethoxy]furo[3,2-c]pyridin-3-yl}phenyl)-(4-hydroxypiperidin-1-yl)methanone]
MET (human)
  IC50: 500 to 5000 nM
RON (human)
  IC50: 500 to 5000 nM

## CC(C)[C@@H](O)C(=O)N1CC=C(c2coc3c(O[C@H](C)c4c(Cl)ccc(F)c4Cl)c(N)ncc23)CC1 [Example 268, (2R)-1-[4-{6-Amino-7-[(1R)-1-(2,6-dichloro-3-fluorophenyl)ethoxy]furo[3,2-c]pyridin-3-yl}-3,6-dihydropyridin-1(2H)-yl]-2-hydroxy-3-methylbutan-1-one]
MET (human)
  IC50: 500 to 5000 nM
RON (human)
  IC50: 500 to 5000 nM

## C[C@@H](Oc1c(N)ncc2c(C3=CCN(C4CN(S(C)(=O)=O)C4)CC3)coc12)c1c(Cl)ccc(F)c1Cl [Example 323]
MET (human)
  IC50: 500 to 5000 nM
RON (human)
  IC50: 500 to 5000 nM

## Cc1ccc(-c2coc3c(O[C@H](C)c4c(Cl)ccc(F)c4Cl)c(N)ncc23)o1 [Example 117]
MET (human)
  IC50: 500 to 5000 nM
RON (human)
  IC50: 500 to 5000 nM

## C[C@@H](Oc1c(N)ncc2c(C3=CCN(/C(N)=N\C#N)CC3)coc12)c1c(Cl)ccc(F)c1Cl [Example 197, 4-{6-Amino-7-[(R)-1-(2,6-dichloro-3-fluorophenyl)ethoxy]-furo[3,2-c]pyridin-3-yl}-N-cyano-3,6-dihydro-2H-pyridine-1-carboxamidine]
MET (human)
  IC50: 500 to 5000 nM
RON (human)
  IC50: 500 to 5000 nM

## COc1cccc(CC(C)Oc2c(N)ncc3c(-c4cnn(C5CCNCC5)c4)coc23)c1 (centres unmarked) [Example 437, 7-[2-(3-Methoxyphenyl)-1-methylethoxy]-3-(1-piperidin-4-yl-1H-pyrazol-4-yl)furo[3,2-c]pyridin-6-ylamine]
MET (human)
  IC50: < 500 nM
RON (human)
  IC50: < 500 nM

## C[C@@H](Oc1c(N)ncc2c(C3=CCN(C(=O)c4ccn[nH]4)CC3)coc12)c1c(Cl)ccc(F)c1Cl [Example 231, (4-{6-Amino-7-[(R)-1-(2,6-dichloro-3-fluorophenyl)ethoxy]-furo[3,2-c]pyridin-3-yl}-3,6-dihydro-2H-pyridin-1-yl)-(2H-pyrazol-3-yl)-methanone]
MET (human)
  IC50: 500 to 5000 nM
RON (human)
  IC50: 500 to 5000 nM

## CC(C)CC(Oc1c(N)ncc2c(-c3cnn(C4CCNCC4)c3)coc12)c1c(Cl)ccc(F)c1Cl (centres unmarked) [Example 366, 7-[1-(2,6-Dichloro-3-fluorophenyl)-3-methylbutoxy]-3-(1-piperidin-4-yl-1H-pyrazol-4-yl)furo[3,2-c]pyridin-6-ylamine]
MET (human)
  IC50: 500 to 5000 nM
RON (human)
  IC50: 500 to 5000 nM

## C[C@@H](Oc1c(N)ncc2c(-c3ccc(C(=O)N4CCCCC4)cc3)coc12)c1c(Cl)ccc(F)c1Cl [Example 290, (4-{6-Amino-7-[(R)-1-(2,6-dichloro-3-fluorophenyl)ethoxy]furo[3,2-c]pyridin-3-yl}phenyl)piperidin-1-ylmethanone]
MET (human)
  IC50: 500 to 5000 nM
RON (human)
  IC50: 500 to 5000 nM

## C[C@@H](Oc1c(N)ncc2c(-c3csc(CN4CCC(O)CC4)c3)coc12)c1c(Cl)ccc(F)c1Cl [Example 306, 1-(4-{6-Amino-7-[(R)-1-(2,6-dichloro-3-fluorophenyl)ethoxy]furo[3,2-c]pyridin-3-yl}thiophen-2-ylmethyl)piperidin-4-ol]
MET (human)
  IC50: < 500 nM
RON (human)
  IC50: < 500 nM

## C[C@@H](Oc1c(N)ncc2c(-c3ccc(NS(C)(=O)=O)cc3)coc12)c1c(Cl)ccc(F)c1Cl [Example 76, N-(4-{6-Amino-7-[(R)-1-(2,6-dichloro-3-fluorophenyl)ethoxy]-furo[3,2-c]pyridin-3-yl}phenyl)methanesulfonamide]
MET (human)
  IC50: < 500 nM
RON (human)
  IC50: 500 to 5000 nM
